Here are results for 18 compounds from PubChem BioAssay (NCI).

Test systems include 786-0 renal; ACHN renal; MALME-3M melanoma; NCI-H522 lung; OVCAR-8 ovarian; SK-MEL-2 melanoma; SK-MEL-5 melanoma; U251 CNS; DU-145 prostate; MDA-MB-231 breast.
Assay in all cases: growth of human tumour cells (NCI), 48 h

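Assay format: 96-well plates, 48-hour exposure. TGI denotes the concentration required for complete inhibition of growth.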

On to `Cc1c(Cl)cccc1N1C(=O)C(Cl)=C(Cl)C1=O`, for which the TGI is greater than 100 µM in the experiment on 786-0 renal; greater than 100 µM with ACHN renal; greater than 100 µM in the experiment on MALME-3M melanoma; 27.9 µM in the experiment with NCI-H522 lung; greater than 100 µM with OVCAR-8 ovarian; greater than 100 µM in the experiment with SK-MEL-2 melanoma. Also, the TGI in the experiment on SK-MEL-5 melanoma and in the experiment with U251 CNS was greater than 100 µM in each case.

Turning to `COc1ccc2oc(-c3cccnc3)cc(=O)c2c1`, the TGI in the experiment on 786-0 renal, in the experiment on ACHN renal, with MALME-3M melanoma, in the experiment on SK-MEL-2 melanoma and with U251 CNS was greater than 100 µM in each case.

For `CCOc1ccc2c(c1)[n+]([O-])c(-c1ccccc1Cl)c(N)[n+]2[O-]`, the TGI in the experiment on 786-0 renal was greater than 100 µM; in the experiment on ACHN renal, greater than 100 µM; in the experiment on MALME-3M melanoma it was greater than 100 µM; in the experiment on NCI-H522 lung, 33.8 µM; in the experiment on OVCAR-8 ovarian it was greater than 100 µM; in the experiment on SK-MEL-2 melanoma, greater than 100 µM. The TGI with SK-MEL-5 melanoma and in the experiment with U251 CNS was greater than 100 µM in each case.

Turning to `CCC1C2C=CC(CC2)N1S(=O)(=O)c1ccc(C)cc1` (stereo not drawn), the TGI was greater than 100 µM with 786-0 renal; greater than 100 µM with ACHN renal; 73.4 µM with MALME-3M melanoma; 61.5 µM in the experiment with NCI-H522 lung; 28.3 µM in the experiment with SK-MEL-2 melanoma; 36.1 µM with SK-MEL-5 melanoma.

As for `O=C(N/N=C1/C(=O)N(c2ccc(Cl)cc2Cl)C(=O)C(=O)C1c1nc2ccccc2o1)c1ccccc1O` (stereo not drawn), the TGI is greater than 100 µM with 786-0 renal; greater than 100 µM with ACHN renal; 78.6 µM with MALME-3M melanoma; 87.7 µM with NCI-H522 lung; greater than 100 µM in the experiment on OVCAR-8 ovarian; greater than 100 µM in the experiment with SK-MEL-2 melanoma. The compound also had a TGI with SK-MEL-5 melanoma of 40.2 µM.

As to `O=C(O)[C@H](NS(=O)(=O)c1ccc2ccccc2c1)c1ccccc1`, the TGI in the experiment on 786-0 renal, with ACHN renal, with MALME-3M melanoma, in the experiment on NCI-H522 lung, in the experiment with SK-MEL-2 melanoma and in the experiment with U251 CNS was greater than 100 µM each time.

With `c1ccc(SC2CCSc3ccccc3C2Sc2ccccc2)cc1` (stereo not drawn), the TGI in the experiment on 786-0 renal, in the experiment with ACHN renal, in the experiment with NCI-H522 lung, with OVCAR-8 ovarian, in the experiment on SK-MEL-5 melanoma and with U251 CNS was greater than 100 µM each time.

Take `CCSc1[nH]c(Nc2nc(-c3ccccc3)n(-c3ccccc3)n2)c(C(N)=O)c1C(N)=O`: the TGI in the experiment with 786-0 renal, in the experiment on DU-145 prostate, with MALME-3M melanoma, with MDA-MB-231 breast, in the experiment with OVCAR-8 ovarian and with SK-MEL-5 melanoma was greater than 10 µM in each case.

Turning to `COc1ccc(/C(=N\NC(=O)C(N)=O)C(c2ccc(OC)cc2)C2(O)C(=O)Nc3c(Cl)cccc32)cc1` (stereo not drawn), the TGI in the experiment with 786-0 renal, in the experiment with ACHN renal, in the experiment on MALME-3M melanoma, in the experiment with OVCAR-8 ovarian, in the experiment with SK-MEL-2 melanoma and with SK-MEL-5 melanoma was greater than 100 µM in each case. For the same compound, in the experiment with U251 CNS, the TGI is greater than 100 µM.

Consider `CC1=C2CCCC2=C/C(=N/Nc2ccc([N+](=O)[O-])cc2[N+](=O)[O-])CC1`, for which the TGI with 786-0 renal, in the experiment with ACHN renal, in the experiment on MALME-3M melanoma, in the experiment with NCI-H522 lung, with OVCAR-8 ovarian and in the experiment on SK-MEL-2 melanoma was greater than 100 µM throughout. For the same compound, the TGI in the experiment on SK-MEL-5 melanoma and in the experiment with U251 CNS was greater than 100 µM each time.

In the case of `O=c1n(-c2ccccc2)c(=O)n2n1C1C=CC2C2C(C1)C2(Cl)Cl` (stereo not drawn), the TGI with 786-0 renal, in the experiment on ACHN renal, in the experiment with MALME-3M melanoma, in the experiment with NCI-H522 lung, in the experiment with OVCAR-8 ovarian and in the experiment with SK-MEL-2 melanoma was greater than 100 µM each time. Moreover, the TGI in the experiment with SK-MEL-5 melanoma and in the experiment with U251 CNS was greater than 100 µM each time.

On to `CCOC(=O)C(C)(C)Oc1ccc2c(C)c(-c3ccc(Cl)cc3)c(=O)oc2c1`, for which the TGI was greater than 100 µM in the experiment with 786-0 renal; greater than 100 µM in the experiment with ACHN renal; greater than 100 µM in the experiment on MALME-3M melanoma; greater than 100 µM in the experiment with OVCAR-8 ovarian; greater than 100 µM in the experiment on SK-MEL-2 melanoma; 35 µM in the experiment on SK-MEL-5 melanoma. This compound also returned a TGI in the experiment with U251 CNS greater than 100 µM.

Turning to `O=C1CC(C[C@H](O)C2CCCCC2O)CC(=O)N1Cc1ccccc1` (stereo partly drawn), the TGI in the experiment on 786-0 renal, in the experiment on ACHN renal, in the experiment on MALME-3M melanoma, with NCI-H522 lung, in the experiment with OVCAR-8 ovarian and with SK-MEL-2 melanoma was greater than 100 µM in each case. The TGI in the experiment on SK-MEL-5 melanoma and in the experiment with U251 CNS was greater than 100 µM each time.

Consider `CCOc1ccc(N2C(=O)/C(=C/c3ccc(N(CCC#N)CCC#N)cc3)N=C2c2cc([N+](=O)[O-])ccc2Cl)cc1`, for which the TGI is 26.4 µM with 786-0 renal; greater than 100 µM in the experiment with ACHN renal; greater than 100 µM with OVCAR-8 ovarian; greater than 100 µM with SK-MEL-2 melanoma; 34.6 µM with SK-MEL-5 melanoma; greater than 100 µM with U251 CNS.

Turning to `COc1ccc(-c2cc(-c3ccccc3)c(C#N)c(=O)n2C2OC(CO)C(O)C(O)C2O)cc1` (stereo not drawn), the TGI in the experiment on 786-0 renal, in the experiment on ACHN renal, in the experiment with MALME-3M melanoma, in the experiment on NCI-H522 lung, in the experiment with OVCAR-8 ovarian and in the experiment with SK-MEL-5 melanoma was greater than 100 µM throughout. Also, the TGI with U251 CNS is greater than 100 µM.

Regarding `C[C@H]1NC(=O)C2CCCCN2C(=O)CN(C)C(=O)CNC(=O)C2CCCCN2C(=O)[C@@H](NC(=O)c2nc3ccccc3cc2O)[C@@H](C)NC(=O)C2CCCCN2C(=O)CN(C)C(=O)CNC(=O)[C@@H]2CCCCN2C(=O)C1NC(=O)c1nc2ccccc2cc1O` (stereo partly drawn), the TGI in the experiment with 786-0 renal is 31.8 µM; with MALME-3M melanoma, 0.388 µM; with NCI-H522 lung it was 0.494 µM; with OVCAR-8 ovarian it was greater than 100 µM; with SK-MEL-2 melanoma, 0.23 µM; with U251 CNS, 36.6 µM.

`N#Cc1c(-c2ccc(F)cc2)c(-c2ccc(F)cc2)nn(CCO)c1=O`: the TGI is greater than 100 µM with 786-0 renal; greater than 81.1 µM in the experiment with ACHN renal; 4.42 µM with DU-145 prostate; greater than 100 µM in the experiment with MALME-3M melanoma; greater than 71 µM with MDA-MB-231 breast; greater than 4.64 µM in the experiment with SK-MEL-5 melanoma. This compound also gave a TGI in the experiment on U251 CNS greater than 100 µM.

For the compound `COc1ccc(NC(=O)/C(N=O)=C(/C)O)cc1`, the TGI with 786-0 renal, in the experiment on ACHN renal, in the experiment with MALME-3M melanoma, in the experiment with OVCAR-8 ovarian, in the experiment on SK-MEL-2 melanoma and with SK-MEL-5 melanoma was greater than 100 µM in each case. The TGI in the experiment with U251 CNS is greater than 100 µM.
